Assay: xn = mol fraction of the nth substance listed
Settings: 101 kPa, Liquid

Clc1ccccc1 [chlorobenzene] + CCCCCCCCCO
x1 = 1
Settings	mass density [kg/m3]	speed of sound [m/s]	viscosity [mPa·s]
298.15 K	1100.67	1268	0.757
303.15 K	1095.1	1249.4	0.714
308.15 K	1089.08	1230.9	0.677
313.15 K	1083.66	1212.6	0.617

Clc1ccccc1 [chlorobenzene] + CCCCCCCCCCO
Settings	mass density [kg/m3]	speed of sound [m/s]	viscosity [mPa·s]
298.15 K, x1 = 0.1664	852.913	1362.6	7.762
298.15 K, x1 = 0.322	881.587	1344.4	5.123
298.15 K, x1 = 0.4609	911.692	1327	3.484
298.15 K, x1 = 0.5731	939.879	1311.7	2.539
298.15 K, x1 = 0.6619	965.236	1299.5	1.967
298.15 K, x1 = 0.7456	992.108	1288.5	1.517
298.15 K, x1 = 0.8174	1017.95	1280.1	1.243
298.15 K, x1 = 0.8857	1045.67	1273.3	1.017
298.15 K, x1 = 0.9426	1071.48	1269.5	0.865
298.15 K, x1 = 1	1100.67	1268	0.757
303.15 K, x1 = 0.1664	848.821	1343.9	6.542
303.15 K, x1 = 0.322	877.329	1325	4.407
303.15 K, x1 = 0.4609	907.247	1307.2	3.058
303.15 K, x1 = 0.5731	935.236	1292.4	2.262
303.15 K, x1 = 0.6619	960.447	1280.9	1.771
303.15 K, x1 = 0.7456	987.138	1270.5	1.388
303.15 K, x1 = 0.8174	1012.83	1262.6	1.147
303.15 K, x1 = 0.8857	1040.32	1256.1	0.949
303.15 K, x1 = 0.9426	1065.89	1252.2	0.808
303.15 K, x1 = 1	1095.1	1249.4	0.714
308.15 K, x1 = 0.1664	845.166	1326	5.554
308.15 K, x1 = 0.322	873.388	1306.4	3.814
308.15 K, x1 = 0.4609	903.044	1288.1	2.695
308.15 K, x1 = 0.5731	930.8	1272.9	2.021
308.15 K, x1 = 0.6619	955.749	1260.8	1.597
308.15 K, x1 = 0.7456	982.146	1249.5	1.273
308.15 K, x1 = 0.8174	1007.56	1240.8	1.045
308.15 K, x1 = 0.8857	1034.75	1234.6	0.868
308.15 K, x1 = 0.9426	1060.08	1231	0.756
308.15 K, x1 = 1	1089.08	1230.9	0.677
313.15 K, x1 = 0.1664	841.509	1308.6	4.751
313.15 K, x1 = 0.322	869.536	1288.1	3.323
313.15 K, x1 = 0.4609	898.972	1269.1	2.388
313.15 K, x1 = 0.5731	926.509	1253.3	1.816
313.15 K, x1 = 0.6619	951.271	1241.1	1.454
313.15 K, x1 = 0.7456	977.488	1230.1	1.156
313.15 K, x1 = 0.8174	1002.68	1222.1	0.968
313.15 K, x1 = 0.8857	1029.64	1216.5	0.809
313.15 K, x1 = 0.9426	1054.84	1213.4	0.702
313.15 K, x1 = 1	1083.66	1212.6	0.617
